Experiment in all cases: NPY receptor functional assay (cAMP, HEK-CNG cells, ACTOne membrane potential dye)
Common to all, as to assay type: cell-based

Test [1] deals with T1, human Y5 receptor (Homo sapiens, UniProt Q15761).
T1 sequence (Q15761 1-445): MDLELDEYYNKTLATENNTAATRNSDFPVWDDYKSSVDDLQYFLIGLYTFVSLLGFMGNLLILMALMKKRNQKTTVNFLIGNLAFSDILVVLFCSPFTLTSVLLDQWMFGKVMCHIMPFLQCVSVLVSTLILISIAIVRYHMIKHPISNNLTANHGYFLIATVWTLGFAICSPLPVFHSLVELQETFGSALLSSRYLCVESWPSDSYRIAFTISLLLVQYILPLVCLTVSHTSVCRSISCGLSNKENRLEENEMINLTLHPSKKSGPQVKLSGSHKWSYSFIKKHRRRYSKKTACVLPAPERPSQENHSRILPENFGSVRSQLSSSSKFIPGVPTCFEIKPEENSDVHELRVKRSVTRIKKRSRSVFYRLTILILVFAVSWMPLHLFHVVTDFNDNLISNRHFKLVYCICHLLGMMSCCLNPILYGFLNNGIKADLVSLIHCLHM
Conditions: NPY5R pEC50, HEK-CNG cells; standard NPY; species (human or rat) not given. The source says:
(§1) The NPY family of G-protein coupled receptors include Y1, Y2, Y4, and Y5 in humans and rats. […] Following agonist binding, the receptor-G protein complex activates a downstream intracellular signaling cascade which leads to inhibition of adenylate cyclase and a reduction in intracellular cAMP levels.
(§2) HEK-CNG cells stably expressing the human or rat Y1, Y2, Y4 or Y5 receptors (Codex Biosolutions) were used to characterize the functional potency of peptide agonists using the ActOne™ membrane potential dye kit (Codex Biosolutions). In addition to each NPY receptor, each cell line encodes a proprietary exogenous Cyclic Nucleotide-Gated (CNG) channel (Codex Biosolutions). The channel is activated by elevated intracellular levels of cAMP, resulting in ion flux and cell membrane depolarization which can be detected with a calcium sensitive dye or fluorescent membrane potential (MP) dye. Cells were carried in growth media containing 90% DMEM, 10% FBS, 250 mcg/mL G418 and 1 mcg/mL puromycin for no more than 15 passages.
(§3) Prior to testing, cells were counted and dispensed at 14,000 cells per well (Y1, Y4 and Y5) or 28,000 cells per well (Y2) into black 384 well Poly-D-Lysine plates at 20 mcL per well. Covered plates were then incubated at room temperature for 30 minutes followed by an overnight incubation at 37° C. in 5% C02. The following day, media was removed and wells were washed once with 40 mcL Dulbecco's phosphate buffered saline. […] Ten microliters of experimental peptide or peptide standard was added in triplicate to wells and incubated for 50 minutes at room temperature in the dark. Following this incubation step, plates were read again as before (final read).
(§4) NPY receptor activation, leading to a reduction in intracellular cAMP levels, is detected as a decrease in isoproteranol induced fluorescent signal. Peptide standard and experimental values were initially transformed in excel using the formula: final read/initial read. Transformed values were then normalized to receptor specific standard values (1×10−13 M minimum and 1×10−7 M maximum) using the formula: (test value−standard minavg)/(standard maxavg−standard minavg)*100. […] Normalized data was analyzed from triplicate tests and used to estimate the EC50 for each test peptide on each receptor. Data was fit in GraphPad Prism software (v8.2.1) using a 3-parameter logistic curve model: Y=Bottom+(Top−Bottom)/(1+10^((LogEC50−X))). EC50 values were converted to pEC50 values using the formula: pEC50=−Log(EC50).

Test [2] addresses T2, human Y2 receptor (Homo sapiens, UniProt P49146).
T2 sequence (P49146 1-381): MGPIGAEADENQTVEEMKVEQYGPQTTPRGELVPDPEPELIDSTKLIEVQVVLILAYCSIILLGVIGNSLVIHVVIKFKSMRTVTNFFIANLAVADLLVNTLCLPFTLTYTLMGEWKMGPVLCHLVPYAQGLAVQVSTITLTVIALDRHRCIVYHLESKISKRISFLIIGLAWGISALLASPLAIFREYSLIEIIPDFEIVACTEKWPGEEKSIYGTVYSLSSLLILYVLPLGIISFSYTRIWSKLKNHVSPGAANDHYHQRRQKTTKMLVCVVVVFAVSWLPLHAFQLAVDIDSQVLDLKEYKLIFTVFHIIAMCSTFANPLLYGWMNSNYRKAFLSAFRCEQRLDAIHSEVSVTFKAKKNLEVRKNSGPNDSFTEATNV
The note with it: NPY2R pEC50, HEK-CNG cells; standard PYY(3-36); species (human or rat) not given.
Description: as §1, §2, §3, §4

The target in test [3] is human Y4 receptor (Homo sapiens, UniProt P50391). The note with it: standard PP, species (human or rat) not given.
Sequence of human Y4 receptor (P50391 whole entry): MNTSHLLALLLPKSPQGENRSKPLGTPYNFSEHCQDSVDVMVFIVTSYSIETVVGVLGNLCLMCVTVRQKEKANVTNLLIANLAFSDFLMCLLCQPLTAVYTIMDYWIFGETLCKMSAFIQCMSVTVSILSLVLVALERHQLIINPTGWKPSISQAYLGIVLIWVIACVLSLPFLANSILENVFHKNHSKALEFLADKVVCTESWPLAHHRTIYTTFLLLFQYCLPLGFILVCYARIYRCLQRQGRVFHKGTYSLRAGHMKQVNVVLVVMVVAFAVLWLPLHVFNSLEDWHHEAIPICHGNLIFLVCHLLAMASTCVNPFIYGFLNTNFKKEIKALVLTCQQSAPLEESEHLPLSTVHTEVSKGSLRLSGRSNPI
Description: as §1, §2, §3, §4

Starred links: 1 amine or outer side, 2 acyl side, 3 side chain; linkers in the order of their positions; H or OH if unused. Non-standard residues stand in square brackets, D forms with d. Residues, ends and D or L forms follow the SMILES beside them. Groups on a side chain read outwards from the residue. *: point of attachment. C20 diacid = O=C(O)CCCCCCCCCCCCCCCCCCC(=O)*; γGlu = O=C(O)[C@H](CCC(=O)[*:2])N[*:1]; NMeY = CN[C@@H](Cc1ccc(O)cc1)C(=O)O

As to `CC(C)C[C@H](NC(=O)[C@H](Cc1ccc(O)cc1)NC(=O)[C@H](Cc1c[nH]cn1)NC(=O)[C@H](CCCNC(=N)N)NC(=O)[C@H](C)NC(=O)[C@H](CC(=O)O)NC(=O)[C@H](C)NC(=O)[C@H](Cc1ccc(O)cc1)NC(=O)[C@H](Cc1ccc(O)cc1)NC(=O)[C@H](CCCNC(=N)N)NC(=O)[C@H](CC(N)=O)NC(=O)[C@H](Cc1c[nH]c2ccccc12)NC(=O)[C@H](CCC(=O)O)NC(=O)[C@H](CCC(=O)O)NC(=O)[C@@H]1CCCN1C(=O)[C@H](CO)NC(=O)[C@H](C)NC(=O)[C@H](CC(=O)O)NC(=O)[C@H](CCCCN)NC(=O)CNC(=O)[C@@H]1CCCN1C(=O)[C@H](C)NC(=O)[C@H](CCC(=O)O)NC(=O)[C@@H]1CCCN1C(=O)[C@H](CCCCN)NC(=O)[C@@H]1CCCN1C(=O)[C@@H](N)CCCCNC(=O)CC[C@H](NC(=O)CC[C@H](NC(=O)CCCCCCCCCCCCCCCCCCC(=O)O)C(=O)O)C(=O)O)C(=O)N[C@@H](CC(N)=O)C(=O)N[C@@H](Cc1c[nH]c2ccccc12)C(=O)N[C@@H](CC(C)C)C(=O)N[C@H](C(=O)N[C@@H](CCCNC(=N)N)C(=O)N[C@@H](CCC(N)=O)C(=O)N[C@@H](CCCNC(=N)N)C(=O)N(C)[C@@H](Cc1ccc(O)cc1)C(N)=O)[C@@H](C)O` [Compound A4] (H-K([γGlu-γGlu-C20 diacid])PKPEAPGKDASPEEWNRYYADARHYLNWLTRQR[NMeY]-NH2; N-terminus assumed), the EC50 (usually the midpoint of the concentration-response curve) in test [1] is 50.1 nM; in test [2], 2 nM. Besides, the “NPY4R pEC50” value in test [3] is “inactive”.
Taken in the same sequence, the figures for `CC(C)C[C@H](NC(=O)[C@H](Cc1ccc(O)cc1)NC(=O)[C@H](Cc1c[nH]cn1)NC(=O)[C@H](CCCNC(=N)N)NC(=O)[C@H](C)NC(=O)[C@H](CC(=O)O)NC(=O)[C@H](C)NC(=O)[C@H](Cc1ccc(O)cc1)NC(=O)[C@H](Cc1ccc(O)cc1)NC(=O)[C@H](CCCNC(=N)N)NC(=O)[C@H](CC(N)=O)NC(=O)[C@H](Cc1c[nH]c2ccccc12)NC(=O)[C@H](CCC(=O)O)NC(=O)[C@H](CCC(=O)O)NC(=O)[C@@H]1CCCN1C(=O)[C@H](CO)NC(=O)[C@H](C)NC(=O)[C@H](CC(=O)O)NC(=O)[C@H](CCCCN)NC(=O)CNC(=O)[C@@H]1CCCN1C(=O)[C@H](C)NC(=O)[C@H](CCC(=O)O)NC(=O)[C@@H]1CCCN1C(=O)[C@H](CCCCNC(=O)CC[C@H](NC(=O)CC[C@H](NC(=O)CCCCCCCCCCCCCCCCCCC(=O)O)C(=O)O)C(=O)O)NC(=O)[C@@H]1CCCN1)C(=O)N[C@@H](CC(N)=O)C(=O)N[C@@H](Cc1c[nH]c2ccccc12)C(=O)N[C@@H](CC(C)C)C(=O)N[C@H](C(=O)N[C@@H](CCCNC(=N)N)C(=O)N[C@@H](CCC(N)=O)C(=O)N[C@@H](CCCNC(=N)N)C(=O)N(C)[C@@H](Cc1ccc(O)cc1)C(N)=O)[C@@H](C)O` [Compound A5] were 10 nM, 20 nM and “inactive”.
For `CC(C)C[C@H](NC(=O)[C@H](Cc1ccc(O)cc1)NC(=O)[C@H](Cc1c[nH]cn1)NC(=O)[C@H](CCCNC(=N)N)NC(=O)[C@H](C)NC(=O)[C@H](CC(=O)O)NC(=O)[C@H](C)NC(=O)[C@H](Cc1ccc(O)cc1)NC(=O)[C@H](Cc1ccc(O)cc1)NC(=O)[C@H](CCCNC(=N)N)NC(=O)[C@H](CC(N)=O)NC(=O)[C@H](Cc1c[nH]c2ccccc12)NC(=O)[C@H](CCC(=O)O)NC(=O)[C@H](CCC(=O)O)NC(=O)[C@@H]1CCCN1C(=O)[C@H](CO)NC(=O)[C@H](C)NC(=O)[C@H](CC(=O)O)NC(=O)[C@H](CCCCN)NC(=O)CNC(=O)[C@@H]1CCCN1C(=O)[C@H](C)NC(=O)[C@H](CCCCNC(=O)CC[C@H](NC(=O)CC[C@H](NC(=O)CCCCCCCCCCCCCCCCCCC(=O)O)C(=O)O)C(=O)O)NC(=O)[C@@H]1CCCN1C(=O)[C@H](CCCCN)NC(=O)[C@@H]1CCCN1)C(=O)N[C@@H](CC(N)=O)C(=O)N[C@@H](Cc1c[nH]c2ccccc12)C(=O)N[C@@H](CC(C)C)C(=O)N[C@H](C(=O)N[C@@H](CCCNC(=N)N)C(=O)N[C@@H](CCC(N)=O)C(=O)N[C@@H](CCCNC(=N)N)C(=O)N(C)[C@@H](Cc1ccc(O)cc1)C(N)=O)[C@@H](C)O` [Compound A6] the same measures were 20 nM, 1.26 nM and “inactive”.
For `CC(C)C[C@H](NC(=O)[C@H](CC(=O)O)NC(=O)[C@H](C)NC(=O)[C@H](Cc1ccc(O)cc1)NC(=O)[C@H](Cc1ccc(O)cc1)NC(=O)[C@H](CCCNC(=N)N)NC(=O)[C@H](CCCCNC(=O)CC[C@H](NC(=O)CC[C@H](NC(=O)CCCCCCCCCCCCCCCCCCC(=O)O)C(=O)O)C(=O)O)NC(=O)[C@H](Cc1c[nH]c2ccccc12)NC(=O)[C@H](CCC(=O)O)NC(=O)[C@H](CCC(=O)O)NC(=O)[C@@H]1CCCN1C(=O)[C@H](CO)NC(=O)[C@H](C)NC(=O)[C@H](CC(=O)O)NC(=O)[C@H](CCCCN)NC(=O)CNC(=O)[C@@H]1CCCN1C(=O)[C@H](C)NC(=O)[C@H](CCC(=O)O)NC(=O)[C@@H]1CCCN1C(=O)[C@H](CCCCN)NC(=O)[C@@H]1CCCN1)C(=O)N[C@@H](CCCNC(=N)N)C(=O)N[C@@H](Cc1c[nH]cn1)C(=O)N[C@@H](Cc1ccc(O)cc1)C(=O)N[C@@H](CC(C)C)C(=O)N[C@@H](CC(N)=O)C(=O)N[C@@H](Cc1c[nH]c2ccccc12)C(=O)N[C@@H](CC(C)C)C(=O)N[C@H](C(=O)N[C@@H](CCCNC(=N)N)C(=O)N[C@@H](CCC(N)=O)C(=O)N[C@@H](CCCNC(=N)N)C(=O)N[C@@H](Cc1ccccc1)C(N)=O)[C@@H](C)O` [Compound A55], the EC50 in test [1] is 20 nM; in test [2], 1.26 nM. For the same compound, in test [3], the “NPY4R pEC50” value was “inactive”.
Taken in the same sequence, the figures for `CC(C)C[C@H](NC(=O)[C@H](Cc1ccc(O)cc1)NC(=O)[C@H](Cc1c[nH]cn1)NC(=O)[C@H](CCCNC(=N)N)NC(=O)[C@H](C)NC(=O)[C@H](CC(=O)O)NC(=O)[C@H](C)NC(=O)[C@H](Cc1ccc(O)cc1)NC(=O)[C@H](Cc1ccc(O)cc1)NC(=O)[C@H](CCCNC(=N)N)NC(=O)[C@H](CC(N)=O)NC(=O)[C@H](Cc1c[nH]c2ccccc12)NC(=O)[C@H](CCC(=O)O)NC(=O)[C@H](CCCCNC(=O)CC[C@H](NC(=O)CC[C@H](NC(=O)CCCCCCCCCCCCCCCCCCC(=O)O)C(=O)O)C(=O)O)NC(=O)[C@@H]1CCCN1C(=O)[C@H](CO)NC(=O)[C@H](C)NC(=O)[C@H](CC(=O)O)NC(=O)[C@H](CCCCN)NC(=O)CNC(=O)[C@@H]1CCCN1C(=O)[C@H](C)NC(=O)[C@H](CCC(=O)O)NC(=O)[C@@H]1CCCN1C(=O)[C@H](CCCCN)NC(=O)[C@@H]1CCCN1)C(=O)N[C@@H](CC(N)=O)C(=O)N[C@@H](Cc1c[nH]c2ccccc12)C(=O)N[C@@H](CC(C)C)C(=O)N[C@H](C(=O)N[C@@H](CCCNC(=N)N)C(=O)N[C@@H](CCC(N)=O)C(=O)N[C@@H](CCCNC(=N)N)C(=O)N(C)[C@@H](Cc1ccc(O)cc1)C(N)=O)[C@@H](C)O` [Compound A8] were 79.4 nM, 0.251 nM and “inactive”.

The values are drawn from US12122816B2, “Long acting peptide tyrosine tyrosine (PYY) analogs and methods of use” (Intarcia Therapeutics, Inc., priority 2020, dated 2024).
